Data on 1 compound can be found in PMC7915277, “Biochemical and Computational Studies of the Interaction between a Glucosamine Derivative, NAPA, and the IKKα Kinase” (International Journal of Molecular Sciences, 2021).

The experiment concerns the target T1, IKKα (Homo sapiens, UniProt O15111).
T1 construct: gene CHUK; recombinant IKKα (Invitrogen), described as a monomer
T1 sequence (O15111 1-745): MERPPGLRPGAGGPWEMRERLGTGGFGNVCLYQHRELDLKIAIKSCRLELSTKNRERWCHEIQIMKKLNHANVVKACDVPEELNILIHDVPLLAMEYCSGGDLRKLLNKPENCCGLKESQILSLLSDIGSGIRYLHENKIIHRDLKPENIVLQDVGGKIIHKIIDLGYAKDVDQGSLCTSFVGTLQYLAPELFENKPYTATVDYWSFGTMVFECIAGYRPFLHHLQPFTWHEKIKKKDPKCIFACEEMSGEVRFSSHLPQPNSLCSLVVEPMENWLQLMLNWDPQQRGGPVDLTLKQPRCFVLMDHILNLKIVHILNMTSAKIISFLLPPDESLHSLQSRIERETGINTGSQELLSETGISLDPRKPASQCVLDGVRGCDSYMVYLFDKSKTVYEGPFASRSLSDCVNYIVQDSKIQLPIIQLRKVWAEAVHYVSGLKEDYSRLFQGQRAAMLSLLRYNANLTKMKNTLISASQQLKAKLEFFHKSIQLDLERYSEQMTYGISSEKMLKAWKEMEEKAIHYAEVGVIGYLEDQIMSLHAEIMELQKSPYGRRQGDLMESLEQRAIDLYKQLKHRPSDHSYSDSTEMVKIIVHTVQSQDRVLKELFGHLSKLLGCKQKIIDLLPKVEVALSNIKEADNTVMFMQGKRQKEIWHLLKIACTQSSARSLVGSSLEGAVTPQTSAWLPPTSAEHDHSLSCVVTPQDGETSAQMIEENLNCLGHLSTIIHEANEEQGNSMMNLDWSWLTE
Kind of experiment: in vitro kinase assay with recombinant IKKα and IKKtide, UPLC-MS readout. The class given is biochemical.

The IC50 is the midpoint of a concentration-inhibition curve. With `CC(=O)N[C@@H](Cc1ccccc1)C(=O)N[C@@H]1[C@@H](O)[C@H](O)[C@@H](CO)O[C@H]1O` [NAPA, 2-(N-Acetyl)-L-phenylalanylamido-2-deoxy-β -D-glucose], the IC50 was determined as 500 ± 86 µM.
